Experiment [1] relates to HCT116 colon cancer cells. Description: cell viability study, MTS assay with a three day incubation period. Format: cell-based. As to the method: The potency of the above-described compounds was measured in cell viability studies using HCT116 colon cancer cells with an MTS assay with a three day incubation period.
The second generation analogs were evaluated for their ability to inhibit HCT116 cell growth through the same protocol that was used to evaluate the initial set of compounds.

Experiment [2] concerns p53 knockout variant of the HCT116 cell line. Briefly: test against p53 knockout variant of the HCT116 cell line. The class given is cell-based. The source says: The identity of the alkoxy group in the acyl aminal subunit appears to exert little influence over the biological activity, but the presence of the alkoxy group enhances potency by at least one order of magnitude (entries 1-4 vs. entry 5). […] This has also been observed in psymberin analogs that lack a substituent at that position (Huang et al., Org. Lett. 2009, 11, 867). […] The approximately one order of magnitude potency reduction of the des-methylene analog (entry 7), though consistent with results from the Nakata group, was somewhat surprising based on the minimal structural perturbation that this change effects on the hydrogen bond donors and acceptors in the molecule (Fukui et al., Bioorg. Med. Chem. Lett. 1997, 7, 2081).

In experiment [3] the test system is HCT116 colon cancer cells. The note with it: literature value, read-out: GI50 value in the literature for this cell line; cited from earlier work.
[4] abbreviates: HCT116 cell growth, same protocol as Table 1, Table 2, second generation analogs.
Setting [5] is: HCT116 cells, MTS assay, three day incubation, Table 1, natural products and analogs.
Setting [6] is: Homo sapiens, HCT-116, HCT116 cell growth, same protocol as Table 1, Table 2, second generation analogs.

Like-named read-outs stand apart in the source and are kept apart here. Bounds are passed on as bounds.

For the compound “4-desmethylene-10-desmethoxy 13-O-methylpederin [Compound 49]”, the GI50 (as a rule, the concentration giving 50% growth inhibition) in experiment [1] (setting [4]) is 79 ± 8 nM.

Take 8-desmethoxy psymberin [Compound 47]: halving of growth in experiment [1] (setting [4]) (GI50) required 0.83 ± 0.1 nM.

Take 10-desmethoxy pederin [Compound 36e]: the GI50 in experiment [1] (setting [5]) was determined as 7.7 ± 0.24 nM.

In experiment [1] (setting [4]), 10-desmethoxy pedestatin [Compound 48] registered a GI50 of 0.068 ± 0.02 nM.

For “10-dimthoxybenzyloxy pederin [Compound 36d]”, it took 0.32 ± 0.09 nM to inhibit growth in experiment [1] (setting [5]) by half (GI50).

“10-trifluoroethoxy pederin [Compound 36c]” yielded a GI50 in experiment [1] (setting [5]) of 0.55 ± 0.024 nM.

Turning to 13-OTBS pederin, in experiment [1] (setting [5]), the GI50 came to 3.1 ± 0.1 nM.

In the case of `C=C1C[C@](OC)([C@H](O)C(=O)N[C@@H](OC)[C@@H]2C[C@@H](O)C(C)(C)[C@@H](C[C@@H](COC)OC)O2)O[C@H](C)[C@@H]1C` [Compound 1, pederin], in experiment [1] (setting [5]), the GI50 is 0.6 ± 0.1 nM. In experiment [2], the “activity against p53 knockout variant of HCT116 compared with HCT116” value (from here on “activity … compared with HCT116”) is “essentially identical activity”.

As to `C=C(C)CC(OC)[C@H](O)C(=O)N[C@@H](OC)[C@@H]1C[C@@H](O)C(C)(C)[C@@H](C[C@H](O)[C@@H](C)[C@H]2Cc3c(C)c(O)cc(O)c3C(=O)O2)O1` (stereo partly drawn) [Compound 2, psymberin], the GI50 is 0.16 nM in experiment [3] and 0.052 ± 0.02 nM in experiment [1] (setting [5]).

Turning to `C=C1CC(OC)(C(O)C(=O)NC(OCC)C2CC(O)C(C)(C)C(CC(COC)OC)O2)OC(C)C1C` (stereo not drawn) [Compound 36b, 10-ethoxy pederin], the GI50 in experiment [1] (setting [5]) was found to be 0.34 ± 0.08 nM.

Consider `C=C1C[C@](OC)([C@H](O)C(=O)N/C=C2/C[C@@H](O)C(C)(C)[C@@H](C[C@@H](COC)OC)O2)O[C@H](C)[C@@H]1C` [Compound 37, pederin enamide], for which the GI50 in experiment [1] (Homo sapiens, HCT-116, 72 h, HCT116 cells, MTS assay, three day incubation, Table 1, natural products and analogs) is 27 ± 0.88 nM. Also, in experiment [2], the “activity … compared with HCT116” value was “essentially identical activity”.

In turn, `C=C1C[C@](OC)([C@H](O)C(=O)N[C@@H](OC)[C@@H]2C[C@@H](OC)C(C)(C)[C@@H](C[C@@H](COC)OC)O2)O[C@H](C)[C@@H]1C` [Compound 41, 13-O-methyl pederin] yielded a 50% growth inhibitory concentration (GI50) in experiment [1] (setting [5]) of 0.084 ± 0.01 nM. The “activity … compared with HCT116” value in experiment [2] was “essentially identical activity”.

For the compound `COC[C@H](C[C@H]1O[C@H]([C@H](C)NC(=O)[C@@H](O)[C@@]2(OC)CC[C@@H](C)[C@@H](C)O2)C[C@@H](OC)C1(C)C)OC` [Compound 51, 4-desmethylene-10-(S)-methyl 13-O-methylpederin], the GI50 in experiment [1] (setting [6]) amounted to 42 ± 5 nM.

`COC[C@H](C[C@H]1O[C@H]([C@@H](C)NC(=O)[C@@H](O)[C@@]2(OC)CC[C@@H](C)[C@@H](C)O2)C[C@@H](OC)C1(C)C)OC` [Compound 52, 4-desmethylene-10-(R)-methyl 13-O-methylpederin]: the GI50 in experiment [1] (setting [6]) was over 9000 nM.

In experiment [1] (setting [5]), C4-desmethylene pederin [Compound 40] displayed a GI50 of 6.5 ± 0.8 nM. Besides, the “activity … compared with HCT116” value in experiment [2] was “essentially identical activity”.

In experiment [1] (setting [5]), pedestatin [Compound 46] came in with a GI50 of 0.046 ± 0.03 nM.

The record behind these values is patent publication US9364555B2, “Pederin and psymberin agents” (priority 2011, dated 2016).
